Source: patent US20260159512A1, “BCAT2 INHIBITORS” (AGIOS PHARMACEUTICALS, INC., priority 2021, published 2026)

Columns and labels:
Settings in all cases: average where tested multiple times
[1] = target: T1, BCAT2 (Homo sapiens, UniProt O15382); assay: BCAT2 in vitro enzyme inhibition assay (resazurin/diaphorase-coupled fluorescence); format: biochemical
T1 sequence (O15382 28-392): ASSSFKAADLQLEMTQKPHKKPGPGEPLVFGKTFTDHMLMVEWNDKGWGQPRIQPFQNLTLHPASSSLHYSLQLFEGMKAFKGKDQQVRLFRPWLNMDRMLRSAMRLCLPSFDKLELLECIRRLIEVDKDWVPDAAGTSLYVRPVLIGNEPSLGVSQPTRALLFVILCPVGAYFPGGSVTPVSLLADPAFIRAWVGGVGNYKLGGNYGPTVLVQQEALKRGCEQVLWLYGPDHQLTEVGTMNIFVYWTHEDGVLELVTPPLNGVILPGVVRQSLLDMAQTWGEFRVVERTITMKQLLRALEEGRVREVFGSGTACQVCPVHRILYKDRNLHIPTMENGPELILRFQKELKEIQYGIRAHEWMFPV
Summary of the method: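 Coupled fluorescence readout: glutamate formed from L-leucine/α-ketoglutarate transamination drives GDH/NAD/diaphorase reduction of resazurin (Ex 540/Em 590). Human BCAT2 was first exposed 1 h at room temperature to compound, top final 100 μM in 3-fold, 10-point series; substrate reaction ran 1 h before SDS quench, in technical duplicate with DMSO max and enzyme-free min controls.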

[2] = target: T2, hBCAT1 (Homo sapiens, UniProt P54687); assay: BCAT1 in vitro enzyme inhibition assay (resazurin/diaphorase-coupled fluorescence); format: biochemical
T2 sequence (P54687 1-386): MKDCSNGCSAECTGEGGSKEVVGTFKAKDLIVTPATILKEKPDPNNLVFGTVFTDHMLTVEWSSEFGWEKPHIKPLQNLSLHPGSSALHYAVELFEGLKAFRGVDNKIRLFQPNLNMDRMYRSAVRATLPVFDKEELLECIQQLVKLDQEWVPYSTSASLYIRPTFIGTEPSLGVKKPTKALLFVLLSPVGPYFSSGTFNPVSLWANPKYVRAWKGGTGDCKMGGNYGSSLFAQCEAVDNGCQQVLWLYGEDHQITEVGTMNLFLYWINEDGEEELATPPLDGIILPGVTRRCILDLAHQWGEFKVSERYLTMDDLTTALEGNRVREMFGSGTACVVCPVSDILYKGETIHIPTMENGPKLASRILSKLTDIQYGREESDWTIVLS
Experimental: BCAT1 In Vitro Enzyme Inhibition Assay
Meanwhile the Substrate Mix was prepared.
Test Compound Preparation:
Test compounds were prepared at 50× final concentration in DMSO, 1 to 3 dilutions were made for 10 points. The compounds were added to the assay as a 1 to 50 dilution (1 μL in 50 μL) to yield a top assay final concentration of 100 μM, decreasing 3-fold for 10 points. […] All tests were performed in technical duplicate.
Where a compound was tested multiple times, the average value of the tests is reported.

[3] = target: T1, BCAT2; assay: BCAT2 in vitro cell inhibition using engineered A549 cells (KMV cell assay, 13C6-KMV by LC-MS/MS); format: cell-based; design: The result was an engineered A549 cell line that expressed endogenous BCAT2; endogenous in cells; host or cells: A549 cells with MUT and BCAT1 knocked out by CRISPR/CAS9; key to BCAT2 Cell Inhibition: A: less than or equal to 0.100 μM; B: greater than 0.100 and less than or equal to 0.500 μM; C: greater than 0.500 and less than or equal to 1.000 μM; d: greater than 1.000 μM; E: no fit

Row | SMILES | IC50 [1] [nM] | IC50 [2] [nM] | IC50 [3] [nM] | BCAT2 Cell Inhibition [3]
1 | O=C(N[C@H]1CCC[C@@H](n2c(C3CCCCO3)nc3cnc(-c4nc[nH]n4)cc32)C1)c1ncc(Cl)s1 (single isomer, unassigned) [Example 89] | ≤ 100 | 500 to 1000 | 100 to 500 | –
2 | O=C(N[C@H]1CCC[C@@H](n2c(C3CCCCO3)nc3cnc(-c4nc[nH]n4)cc32)C1)c1ncc(Cl)s1 (single isomer, unassigned) [Example 90] | ≤ 100 | < 500 | 100 to 500 | –
3 | O=C(N[C@H]1C[C@H](O)C[C@@H](n2c(-c3ccccc3F)nc3cnc(-n4nccn4)cc32)C1)c1ncc(Cl)s1 (single isomer, unassigned) [Example 110] | ≤ 100 | < 500 | ≤ 100 | –
4 | O=C(N[C@@H]1C[C@@H](O)C[C@H](n2c(-c3ccccc3F)nc3cnc(-n4nccn4)cc32)C1)c1ncc(Cl)s1 (single isomer, unassigned) [Example 111] | 100 to 500 | < 500 | 100 to 500 | –
5 | CN1C[C@@H](NC(=O)c2ncc(Cl)s2)C[C@@H](n2c(-c3ccccc3F)nc3cnc(-c4nc[nH]n4)cc32)C1 (single isomer, unassigned) [Example 133] | 100 to 500 | 1000 to 5000 | > 1000 | –
6 | CC(C)Cc1nc2cnc(-c3nc[nH]n3)cc2n1[C@H]1C[C@@H](NC(=O)c2ncc(Cl)s2)CN(C)C1 (single isomer, unassigned) [Example 136] | ≤ 100 | < 500 | ≤ 100 | –
7 | O=C(NC1COCC(n2c(-c3ncccc3F)nc3cnc(-n4nccn4)cc32)C1)c1ncc(C(F)F)s1 (single isomer, unassigned) [Example 139, 5-(difluoromethyl)-N-(5-(2-(3-fluoropyridin-2-yl)-6-(2H-1,2,3-triazol-2-yl)-1H-imidazo[4,5-c]pyridin-1-yl)tetrahydro-2H-pyran-3-yl)thiazole-2-carboxamide] | > 1000 | > 5000 | – | E
8 | CC(C)Cc1nc2cnc(-n3nccn3)cc2n1[C@@H]1COC[C@H](NC(=O)c2ccc(Cl)s2)C1 (single isomer, unassigned) [Example 141] | ≤ 100 | < 500 | ≤ 100 | –
9 | O=C(NC1COCC(n2c(-c3ccccc3F)nc3cnc(-n4nccn4)cc32)C1)c1ncc(C(F)F)s1 (single isomer, unassigned) [Example 143, 5-(difluoromethyl)-N-(5-(2-(2-fluorophenyl)-6-(2H-1,2,3-triazol-2-yl)-1H-imidazo[4,5-c]pyridin-1-yl)tetrahydro-2H-pyran-3-yl)thiazole-2-carboxamide] | 100 to 500 | > 5000 | 100 to 500 | –

Continued, values first:

Row | IC50 [1] [nM] | IC50 [2] [nM] | IC50 [3] [nM] | BCAT2 Cell Inhibition [3] | SMILES
10 | ≤ 100 | 1000 to 5000 | 100 to 500 | – | O=C(N[C@@H]1CCCC[C@H](n2c(-c3ccccc3F)nc3cnc(-c4nnc[nH]4)cc32)C1)c1ncc(Cl)s1 (single isomer, unassigned) [Example 87, 5-chloro-N-(3-(2-(2-fluorophenyl)-6-(4H-1,2,4-triazol-3-yl)-1H-imidazo[4,5-c]pyridin-1-yl)cycloheptyl)thiazole-2-carboxamide]
11 | ≤ 100 | < 500 | ≤ 100 | – | O=C(N[C@H]1CCCC[C@@H](n2c(-c3ccccc3F)nc3cnc(-c4nnc[nH]4)cc32)C1)c1ncc(Cl)s1 (single isomer, unassigned) [Example 88, 5-chloro-N-(3-(2-(2-fluorophenyl)-6-(4H-1,2,4-triazol-3-yl)-1H-imidazo[4,5-c]pyridin-1-yl)cycloheptyl)thiazole-2-carboxamide]
12 | ≤ 100 | 1000 to 5000 | > 1000 | – | O=C(N[C@H]1CCC[C@@H](n2c(C3CCCOC3)nc3cnc(-c4nc[nH]n4)cc32)C1)c1ncc(Cl)s1 (single isomer, unassigned) [Example 102]
13 | ≤ 100 | 500 to 1000 | 100 to 500 | – | O=C(N[C@H]1CCC[C@@H](n2c(C3CCCOC3)nc3cnc(-c4nc[nH]n4)cc32)C1)c1ncc(Cl)s1 (single isomer, unassigned) [Example 103]
14 | 100 to 500 | < 500 | 500 to 1000 | – | O=C(N[C@@H]1C[C@@H](O)C[C@H](n2c(-c3ccccc3F)nc3cnc(-n4nccn4)cc32)C1)c1ncc(C(F)F)s1 (single isomer, unassigned) [Example 107]
15 | ≤ 100 | < 500 | ≤ 100 | – | O=C(N[C@H]1C[C@H](O)C[C@@H](n2c(-c3ccccc3F)nc3cnc(-n4nccn4)cc32)C1)c1ncc(C(F)F)s1 (single isomer, unassigned) [Example 108]
16 | ≤ 100 | < 500 | ≤ 100 | – | O=C(N[C@H]1CCC[C@@H](n2c(-c3ccccc3F)nc3cnc(-n4nccn4)cc32)[C@@H]1O)c1ncc(Cl)s1 (single isomer, unassigned) [Example 113]
17 | ≤ 100 | < 500 | ≤ 100 | – | CN1C[C@H](NC(=O)c2ncc(Cl)s2)C[C@H](n2c(-c3ccccc3F)nc3cnc(-c4nc[nH]n4)cc32)C1 (single isomer, unassigned) [Example 134]
18 | > 1000 | > 5000 | – | E | CC(C)Cc1nc2cnc(-c3nc[nH]n3)cc2n1[C@@H]1C[C@H](NC(=O)c2ncc(Cl)s2)CN(C)C1 (single isomer, unassigned) [Example 135]
19 | ≤ 100 | 500 to 1000 | 100 to 500 | – | O=C(NC1COCC(n2c(-c3ncccc3F)nc3cnc(-n4nccn4)cc32)C1)c1ncc(C(F)F)s1 (single isomer, unassigned) [Example 138, 5-(difluoromethyl)-N-(5-(2-(3-fluoropyridin-2-yl)-6-(2H-1,2,3-triazol-2-yl)-1H-imidazo[4,5-c]pyridin-1-yl)tetrahydro-2H-pyran-3-yl)thiazole-2-carboxamide]
20 | ≤ 100 | < 500 | ≤ 100 | – | O=C(NC1COCC(n2c(-c3ccccc3F)nc3cnc(-n4nccn4)cc32)C1)c1ncc(C(F)F)s1 (single isomer, unassigned) [Example 142, 5-(difluoromethyl)-N-(5-(2-(2-fluorophenyl)-6-(2H-1,2,3-triazol-2-yl)-1H-imidazo[4,5-c]pyridin-1-yl)tetrahydro-2H-pyran-3-yl)thiazole-2-carboxamide]
21 | 100 to 500 | 1000 to 5000 | > 1000 | – | O=C(N[C@H]1CCC[C@@H](n2c(C3COCCO3)nc3cnc(-c4nc[nH]n4)cc32)C1)c1ncc(Cl)s1 (single isomer, unassigned) [Example 176]
22 | ≤ 100 | < 500 | – | – | O=C(N[C@H]1CCC[C@@H](n2c(N3CCCCC3)nc3cnc(-c4nc[nH]n4)cc32)C1)c1ccc(Cl)s1 [Example 372, 5-chloro-N-((1S,3R)-3-(2-(piperidin-1-yl)-6-(1H-1,2,4-triazol-3-yl)-1H-imidazo[4,5-c]pyridin-1-yl)cyclohexyl)thiophene-2-carboxamide]
23 | > 1000 | 1000 to 5000 | – | – | CC(C)Cc1nc2cnc(-n3nccn3)cc2n1[C@H]1CCC[C@@H](NC(=O)c2ccc(Cl)s2)[C@@H]1O [Example 394, 5-chloro-N-((1R,2S,3S)-2-hydroxy-3-(2-isobutyl-6-(2H-1,2,3-triazol-2-yl)-1H-imidazo[4,5-c]pyridin-1-yl)cyclohexyl)thiophene-2-carboxamide]
